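Following 48 hours of exposure in 96-well plates, responses at five concentrations were used to interpolate endpoints linearly. At the TGI there is no net growth.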

The values that follow come from PubChem BioAssay (NCI).

Test systems include NCI-H226 lung; SN12C renal; KM12 colon; MCF7 breast; RPMI-8226 leukemia; LOX IMVI melanoma; HCT-116 colon; OVCAR-4 ovarian; HOP-92 NSCLC; OVCAR-5 ovarian; UACC-257 melanoma; MALME-3M melanoma; NCI-H460 lung; SF-268 CNS; HT29 colon; U251 CNS; HL-60(TB) leukemia; A549 NSCLC; SK-MEL-28 melanoma; SNB-75 CNS.
Common to all, as to test: NCI tumour cell line growth inhibition, 48 h

Take `C=C1[C@H](OC(=O)C(C)C)[C@@H](OC(C)=O)[C@@H](OC(C)=O)C(C)(C)[C@@H]2O[C@H]2[C@@H](C)C(=O)[C@@]2(OC(C)=O)C[C@@](C)(OC(C)=O)[C@H](OC(C)=O)[C@@H]2[C@H]1OC(C)=O`: the TGI in the assay on NCI-H226 lung, with SN12C renal, in the assay with KM12 colon, in the assay on MCF7 breast, with RPMI-8226 leukemia and in the assay with LOX IMVI melanoma was greater than 100 µM in each case. For the same compound, the TGI in the assay with HCT-116 colon, in the assay on OVCAR-4 ovarian, in the assay with HOP-92 NSCLC, with OVCAR-5 ovarian, in the assay with UACC-257 melanoma and in the assay on MALME-3M melanoma was greater than 100 µM each time. In addition, the TGI in the assay on NCI-H460 lung, in the assay with SF-268 CNS, in the assay on HT29 colon, with U251 CNS, with HL-60(TB) leukemia and with A549 NSCLC was greater than 100 µM throughout.
With `C=C[C@]1(O)CCC[C@]2(C)C(=O)CCC12C` (some centres not stated), the TGI with NCI-H226 lung, in the assay with SN12C renal, with KM12 colon, in the assay with MCF7 breast, in the assay on RPMI-8226 leukemia and in the assay on LOX IMVI melanoma was greater than 100 µM each time. Besides, the TGI in the assay with HCT-116 colon, in the assay on SK-MEL-28 melanoma, with OVCAR-4 ovarian, in the assay on HOP-92 NSCLC, in the assay on OVCAR-5 ovarian and with UACC-257 melanoma was greater than 100 µM throughout. Further, the TGI in the assay with MALME-3M melanoma, with NCI-H460 lung, with SF-268 CNS, in the assay with HT29 colon, with U251 CNS and with HL-60(TB) leukemia was greater than 100 µM throughout. This compound also registered a TGI in the assay with A549 NSCLC greater than 100 µM.
With `CCCCCN1CCN(c2ncccn2)CC1`, the TGI in the assay with SN12C renal, in the assay with KM12 colon, with MCF7 breast, in the assay with RPMI-8226 leukemia, in the assay on LOX IMVI melanoma and in the assay on HCT-116 colon was greater than 100 µM each time. Besides, the TGI in the assay with SNB-75 CNS, in the assay on SK-MEL-28 melanoma, with OVCAR-4 ovarian, in the assay on HOP-92 NSCLC, in the assay on OVCAR-5 ovarian and in the assay on UACC-257 melanoma was greater than 100 µM in each case. Also, the TGI with MALME-3M melanoma, with SF-268 CNS, in the assay on HT29 colon, with U251 CNS, with HL-60(TB) leukemia and in the assay with A549 NSCLC was greater than 100 µM throughout.
As for `O=C(/C=C/c1ccc(O)c(O)c1)OCc1ccccc1`, the TGI in the assay on NCI-H226 lung is greater than 100 µM; in the assay with SN12C renal, 51.8 µM; in the assay on KM12 colon it was greater than 100 µM; in the assay on MCF7 breast, 37.9 µM; in the assay on RPMI-8226 leukemia, 32.2 µM; in the assay with LOX IMVI melanoma it was 71.6 µM. Also, the TGI in the assay with HCT-116 colon was 30.5 µM; in the assay on SK-MEL-28 melanoma, 61.3 µM; in the assay with OVCAR-4 ovarian it was 79.2 µM; with HOP-92 NSCLC, 58 µM; in the assay with OVCAR-5 ovarian, greater than 100 µM; in the assay on UACC-257 melanoma, 59.1 µM. Besides, the TGI was 80.4 µM with MALME-3M melanoma; greater than 100 µM with NCI-H460 lung; 45.8 µM in the assay on SF-268 CNS; greater than 100 µM in the assay with HT29 colon; 49.6 µM in the assay on U251 CNS; 4.66 µM with HL-60(TB) leukemia. The TGI in the assay with A549 NSCLC amounted to 62.1 µM.
Consider `Cc1nc2c(O)cc3c4c(=O)n(C)c(=O)n(C)c4n(Cc4ccccc4)c3c2nc1C`, for which the TGI came to 55.3 µM in the assay with NCI-H226 lung; 38.1 µM in the assay on SN12C renal; 54 µM with KM12 colon; 32.2 µM in the assay with MCF7 breast; 51.8 µM in the assay with RPMI-8226 leukemia; 37.4 µM in the assay with LOX IMVI melanoma. Also, the TGI stood at 52.1 µM in the assay with HCT-116 colon; 28 µM in the assay with SK-MEL-28 melanoma; 23.7 µM in the assay on OVCAR-4 ovarian; 27.2 µM in the assay on HOP-92 NSCLC; 43.6 µM in the assay with OVCAR-5 ovarian; 33.1 µM in the assay with UACC-257 melanoma. In addition, the TGI was 38.8 µM with MALME-3M melanoma; greater than 100 µM with NCI-H460 lung; 32.9 µM in the assay with SF-268 CNS; 32.2 µM in the assay on HT29 colon; 35.4 µM with U251 CNS; 53.8 µM in the assay with HL-60(TB) leukemia. For the same compound, in the assay on A549 NSCLC, the TGI was 36.2 µM.
`CCOC(=O)/C(C=Nc1c(C)n(C)n(-c2ccccc2)c1=O)=C(/O)c1ccccc1`: the TGI in the assay with NCI-H226 lung is greater than 100 µM; in the assay with SN12C renal it was greater than 100 µM; in the assay on KM12 colon it was 0.746 µM; with MCF7 breast it was greater than 100 µM; with RPMI-8226 leukemia it was greater than 100 µM; in the assay on LOX IMVI melanoma, greater than 100 µM. Besides, the TGI with HCT-116 colon, in the assay with SK-MEL-28 melanoma, in the assay on OVCAR-4 ovarian, in the assay with HOP-92 NSCLC, with OVCAR-5 ovarian and in the assay with UACC-257 melanoma was greater than 100 µM in each case. For the same compound, the TGI in the assay on MALME-3M melanoma, in the assay on NCI-H460 lung, in the assay on SF-268 CNS, in the assay with HT29 colon, in the assay on U251 CNS and in the assay with HL-60(TB) leukemia was greater than 100 µM throughout. For the same compound, in the assay with A549 NSCLC, the TGI is greater than 100 µM.
